One compound from article PMC9227781, “Inhibitors of O-Acetylserine Sulfhydrylase with a Cyclopropane-Carboxylic Acid Scaffold Are Effective Colistin Adjuvants in Gram Negative Bacteria” (Pharmaceuticals, 2022) can be followed below.

The structures appear in SMILES notation.

In this experiment the test system is S. Typhimurium DW378. In words: Target engagement: MIC of 12h and colistin in cysK/cysM-inactive mutant strain. It is filed as cell-based, Salmonella enterica serovar Typhimurium. Here is the method:
In this regard, compound 12h has been selected because of its favorable overall properties. It has been tested at a concentration of 32 μg/mL, in order to ensure complete inactivation of both the OASS isoforms. […] The MIC assays of 12h and colistin alone on the DW378 strain have been performed and they have been compared with those obtained on the WT strain. […] But, on the other hand, the MIC value of colistin was […] lower on the mutant strain than that on the WT, a result that overlapped those achieved with the association of colistin and 12h in WT cells.
MIC values were evaluated following CLSI guidelines with some modifications, as referred to in previous work. Twofold dilutions 25.6–0.05 mg/mL of the tested compounds were performed in DMSO in separate 96-well microtiter U-plates (Greiner, Milan, Italy). In a different 96-well microtiter U-plate, for each well of the replicates, 49 µL of broth medium were added. Then, in each well of the plate, one microliter of each compound at variable dilution in DMSO was added. For each test, three independent experiments with three replicates each were performed.
Antimicrobial activity of associations between the different compounds and colistin (Sigma-Aldrich, St. Louis, MO, USA, lot n. 049M-4836 V) was tested with checkerboard assay with minor modifications, as mentioned in the previous work. For each assay, three experiments with three replicates each were assessed. For each compound tested concentration, 96-wells microtiter U-plates were prepared with twofold serial dilutions of colistin in MHB starting from the MIC value (µg/mL) for ten consecutive dilutions in 50 µL of broth. In each well of the same replicate, 1 µL of each compound in DMSO was added at a fixed concentration, 100 times higher than the final desired concentration (3.2; 1.6; 0.8 mg/mL). Subsequently, 49 µL of the bacterial suspension at a concentration of 10^6 CFU/mL, adjusted spectrophotometrically as reported above, was added to each well, reaching the final bacterial concentration of 5 × 10^5 CFU/mL. Growth and sterility controls were performed for each experiment and for each replicate. Finally, the plates were incubated at 37 °C in aerobic atmosphere for 24 h. After incubation, plates were read by unaided eye with a microtiter reading mirror and then the OD of each well of the plates was measured spectrophotometrically at 620 nm. MIC values were calculated as the arithmetic mean ± SD of the unaided eye reading and the inhibition of growth for each tested dilution was calculated from the OD values (mean ± SD).
* This strain is defective for the expression of cysK and cysM genes, encoding for isozymes OASS-A and B. The genotypes of this strain are trpC109, cysK1772, and cysM1770. […]

For the compound `CCOC(=O)C1(Cc2ccc(C)cc2)CC1c1cccc(N2CC(C)OC(C)C2)c1` (stereo not drawn) [Compound 12h, trans-ethyl 2-(3-(2,6-dimethylmorpholino)phenyl)-1-(4-methylbenzyl)cyclopropanecarboxylate], the MIC (Salmonella enterica, TYPHIMURIUM, 12 h, read-out: MIC 12h (μg/mL)) is over 512 µg/mL. The “MIC Colistin” value (colistin in combination with 12h at 32 μg/mL, DW378 mutant strain) was determined as 0.141 ± 0.09 µg/mL.
